Read-outs that look alike come from different tables or passages of the source.
How the values were obtained:
[1] = test system: RPMI-8226 human myeloma xenografts in NOD/SCID mice; experiment: RPMI-8226 tumor xenografts; type: in vivo, mouse
Method: Six to nine-week old Nod/Les2 Scid/J mice were inoculated with 3×10^7 RPMI-8226 cells by interscapular subcutaneous injection. Mice were maintained under specific pathogen-free conditions. Palpable tumor nodules were measured in two dimensions with calipers and tumor volumes calculated in mm^3 as (length×width^2)/2. Blood samples were collected by retro-orbital bleed for human light chain measurements by ELISA with lambda-specific antibody and horseradish peroxidase detection (BD Biosciences). Animals were sacrificed by halothane inhalation, and histologic examination of tumors and internal organs was performed. All experiments were approved by the Fred Hutchison Cancer Research Center Institutional Animal Care and Use Committee.
2-OMe antimycin A1 was synthesized from antimycin A1 (Sigma) (comprising about 80% antimycin Ala and about 20% A1b) and dissolved in phosphate-buffered saline with 20% Cremaphor, 25% ethanol (3 mg/ml) for parenteral administration by tail vein injection in a total volume of 100 μl. Control mice received injections of Cremaphor/ethanol vehicle.
Tissues were fixed in 10% buffered formalin, embedded in paraffin, sectioned and stained with hematoxylin and eosin. TUNEL staining was performed using 0.3 units/ml terminal deoxynucleotidyl transferase and biotinylated dATP with development by avidin-biotin peroxidase method. BCl-xL immunohistochemistry was performed using anti-Bcl-xL antibody (BD Biosciences) followed by biotinylated secondary antibody and peroxidase-labeled ABC reagent (Vector, Burlingame Calif.).
To determine whether 2-OMeA, has anti-tumor activity in vivo, a total of 12 NOD/SCID mice in three experiments were inoculated with 3×10^7 RPMI-8226 human myeloma cells by interscapular subcutaneous injection. […] In total, six mice received three intravenous doses of 10 mg/kg 2-OMeA1 on alternate days starting on day 6. Six control mice received injections of Cremaphor/ethanol vehicle without drug.

cytochrome bc1 = cytochrome bc1 (Bos taurus, UniProt P00157); conditions: cited from earlier work
NOD/SCID mice = experiment: In vivo toxicity, intravenous dosing
[2] = test system: RPMI-8226 myeloma cell line; experiment: O2 consumption with a Clark electrode; type: cell-based, human
Method: Respiratory rates of both cell lines were maintained through repeated additions of 10 μM 2-OMeA, to a final concentration of 90 μM. […] Real-time glucose consumption and lactate production by TAMH cells grown on microcarrier beads was monitored using a novel microsequential injection-lab on valve (μSI-LOV) system (Schulz et al., Analyst 127:1293-1298, 2002). […] Since 2-OMeA has no effect on cellular respiration at these concentrations, 2-OMeA induced aerobic glycolysis in TAMH cells. The glycolytic response to 2-OMeA was proportional to cellular BCl-xL protein expression.

[3] = Pharmacokinetic evaluation in Fischer 344 rats; type: in vivo, rat; conditions: intravenous 0.25 mg/kg; for amount detectable in plasma: 2 hr after dosing; for amounts in the urine, livers, or kidneys: 24 hr after dosing
Method: Male Fischer 344 rats (five/group) were dosed via a lateral tail vein with either 2-OMe-A1 or 2-OMe-A3 (0.25 mg/kg) administered as a 1-min intravenous push. The dosing vehicle was the same as that used for mice. The dosing volume was 1.3 ml/kg. Blood samples were collected and analyzed. Further, samples of plasma, urine, livers, and kidneys were collected from rats kept in metabolism cages for 24 hr. To retard the breakdown of the test compounds, NaF+EDTA was present in the tubes used for collecting blood and urine and was added to tissue homogenates.
Pharmacokinetic values were derived with WinNonlin® software (Mountain View, Calif.).

plasma proteins = experiment: Binding to plasma proteins (ultrafiltration); type: in vitro ADME, rat; conditions: presence of NaF+EDTA, 1000 ng/ml
RPMI-8226 cells = experiment: GI50 assay (MTT); type: cell-based, human; conditions: 48 h, MTT
Method: RPMI 8226 cells were grown in 96 well plates for 24 h prior to addition of 2-methoxy Antimycins. Antimycin stocks in DMSO were serially diluted in RPMI media. Cells were incubated for 48 h with compounds at final compound concentrations ranging from 10^−4 to 10^−8 M. MTT assays were performed in quadruplicate and percent growth inhibitions were calculated as (A570 (control cells)—A570 (treated cells))/A570 (control cells). The GI50 was extrapolated from semi-log plots of the dose response for each compound. […] After 72 h drug exposures, 1 μCi/ml [^3H]-thymidine was added to wells. Cells were incubated for an additional 24 h, and then transferred to GF/C filter plates (Packard) using a plate washer. Filters were dried, added to scintillant, and counted in a TopCount scintillation counter (Packard). Drug response was expressed as the percentage of vehicle-treated controls, and each value shown as the average of three determinations.

Stability in plasma = type: in vitro ADME, rat; conditions: 37° C., 60 min, presence of NaF/EDTA
Method: For analysis of samples, two volumes of cold methanol-acetonitrile (50:50, v/v) were added to portions of plasma, culture medium, or cell extract. The preparations were mixed and then centrifuged to obtain clear supernatants, which were dried at room temperature by compressed air. The residues were dissolved in the mobile phase, and a portion was injected onto the HPLC column.
The HPLC equipment consisted of a Hewlett Packard 1050 ChemStation with a fluorescence detector (Agilent 100 series). […] The mobile phase was methanol:ammonium acetate buffer (87:13 v/v; 0.2 M; pH 5.8, adjusted with HCl). The flow rate was 1 ml/min. The column elute was monitored fluorometrically at an excitation wavelength of 232 nm and an emission wavelength of 418 nm. The amounts of test compounds present in samples were determined from the peak areas.
Samples of mouse, rat, dog, and human plasma were incubated at 37° C. with and without addition of NaF (2.5 mg/ml) and EDTA (1 mg/ml). To these preparations, 2-OMe antimycin A1, 2-OMe antimcyin A2, 2-OMe antimycin A3, or 2-OMe antimycin A5, dissolved in methanol, was added to final concentrations of 500 ng/ml. Portions of plasma, taken at selected times after addition of the 2-OMe antimycin analog, were extracted and analyzed.

**Q.** For 2-methoxy antimycin A [2-OMeA], which “treated mice with regression of tumor nodules” value ([1]; second round, 10 mg/kg alternate days, days 26 through 31) is on record?
**A.** The value was 6/6.

**Q.** And the “reduction of oxidative phosphorylation inhibitory activity at complex III” value (cytochrome bc1; relative to antimycin A)?
**A.** Its value is 1000 fold.

**Q.** What about the mice died (NOD/SCID mice; intravenous 20 mg/kg) of the same molecule?
**A.** The mice died was “Three of six”.

**Q.** What about the respiratory rate ([2]; repeated additions of 10 μM to a final concentration of 90 μM) of the same molecule?
**A.** Its respiratory rate is “maintained”.

**Q.** For CCCCCC[C@H]1C(=O)O[C@H](C)[C@H](NC(=O)c2cccc(NC=O)c2OC)C(=O)O[C@@H](C)[C@@H]1OC(=O)CC(C)C [2-OMeA1, 2-methoxy antimycin A1], which “amount detectable in plasma” value [3] is on record?
**A.** The value was “little or no”.

**Q.** What about the “amounts in the urine, livers, or kidneys” value [3] of the same molecule?
**A.** The value was “little or no detectable amounts”.

**Q.** And the AUC [3]?
**A.** Its AUC is 47 ng·h/mL.

**Q.** And the Cmax [3]?
**A.** Its Cmax is 970 ng/mL.

**Q.** And the MRT [3]?
**A.** The MRT was 3.3 min.

**Q.** What about the T1/2 [3] of the same molecule?
**A.** Its T1/2 is 2.3 min.

**Q.** And the Vss [3]?
**A.** The Vss was 0.29 mL/g.

**Q.** What about the “time to regression of early and large nodules” value ([1]; 10 mg/kg intravenously) of the same molecule?
**A.** Its value is “within the first week”.

**Q.** What about the tumor sections ([1]; 24 and 48 h after a single 10 mg/kg intravenous treatment) of the same molecule?
**A.** The tumor sections was “widespread apoptosis”.

**Q.** What about the “average reduction of serum levels of human light chain” value ([1]; after the third injection, 10 mg/kg intravenous on alternate days) of the same molecule?
**A.** Its value is 87%.

**Q.** And the “mice with tumor regression during treatment” value ([1]; three intravenous doses of 10 mg/kg on alternate days starting on day 6)?
**A.** The value was “Five of six”.

**Q.** What about the “effect of delayed treatment on tumor nodules” value ([1]; two tumor-bearing control mice, 10 mg/kg on days 43, 46 and 48) of the same molecule?
**A.** The value was “regression of tumor nodules”.

**Q.** And the “Protein binding, Rat” value (plasma proteins)?
**A.** Its value is greater than 99.9%.

**Q.** And the “histologic examinations of normal tissues” value (NOD/SCID mice; 10 mg/kg)?
**A.** Its value is “No cellular injury or inflammation”.

**Q.** What about the “reformation of antimycin A1 in plasma” value (NOD/SCID mice; preliminary LC/MS analyses of plasma after administration) of the same molecule?
**A.** Its value is “have not demonstrated reformation”.

**Q.** And the “mice survived without apparent toxicity” value (NOD/SCID mice; three intravenous doses of 10 mg/kg on alternate days)?
**A.** The value was 6 of 6.

**Q.** What about the adverse effects (NOD/SCID mice; treated tumor-bearing mice, 10 mg/kg) of the same molecule?
**A.** The adverse effects was “No adverse effects”.

**Q.** What about the GI50 (RPMI-8226 cells) of the same molecule?
**A.** The GI50 was 8.56 µM.

**Q.** What about the stability (Stability in plasma) of the same molecule?
**A.** The stability was “substantially stable”.

**Q.** For antimycin A, which dampening of respiration ([2]; 10 μM) is on record?
**A.** Its dampening of respiration is greater than 90%.

**Q.** For CCCC[C@H]1C(=O)OC(C)[C@H](NC(=O)c2cccc(NC=O)c2OC)C(=O)O[C@@H](C)C1OC(=O)CC(C)C (some centres unmarked) [2-OMeA3, Antimycin A3 methyl ether], which “amount detectable in plasma” value [3] is on record?
**A.** Its value is “little or no”.

**Q.** What about the “amounts in the urine, livers, or kidneys” value [3] of the same molecule?
**A.** The value was “little or no detectable amounts”.

**Q.** And the half-life ([3]; male, Fischer 344, rat, plasma)?
**A.** Its half-life is 1 min.

**Q.** What about the AUC ([3]; male, Fischer 344, rat, plasma, read-out: AUC) of the same molecule?
**A.** The AUC was 18 ng·h/mL.

**Q.** What about the Cmax ([3]; male, Fischer 344, rat, plasma, read-out: Cmax) of the same molecule?
**A.** Its Cmax is 920 ng/mL.

**Q.** What about the MRT ([3]; male, Fischer 344, rat, plasma, read-out: MRT (converted)) of the same molecule?
**A.** The MRT was 1.4 min.

**Q.** What about the Vd ([3]; male, Fischer 344, rat, plasma, read-out: Vss) of the same molecule?
**A.** The Vd was 0.37 L/kg.

**Q.** And the “Protein binding, Rat” value (plasma proteins)?
**A.** Its value is 99.8%.

**Q.** What about the “activity as an inhibitor of cytochrome bc1” value (cytochrome bc1) of the same molecule?
**A.** The value was “inactive”.

**Q.** What about the GI50 (RPMI-8226 cells; Homo sapiens, RPMI-8226) of the same molecule?
**A.** Its GI50 is 10.2 µM.

**Q.** What about the stability (Stability in plasma) of the same molecule?
**A.** The stability was “largely stable”.
